Our source for the EC50, IC50 and outcome values is PubChem BioAssay AID179 (DTP/NCI, 2004).

pEC50, pIC50: −log10 of the molar value. Calls of active or inactive are those of the source.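 How the source made its calls: active means compounds giving half or more protection of infected cells from virus-caused growth loss, again on retest; inactive means the rest.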

This assay deals with CEM cells HIV-1 protection, formazan growth assay. Put plainly: NCI AIDS Antiviral Assay. The conditions noted are these: for pIC50: measured here: growth of uninfected CEM cells. An outline of the steps:
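Category rules: moderately active means at least 50% protection on retest, and confirmed active means 100% protection reproducibly. The underlying data came from a formazan growth assay in HIV-1-infected CEM cells.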

In general, pEC50 refers to the negative decadic logarithm of the EC50, by convention in mol/L. One may read the pIC50 as the negative decadic logarithm of the IC50, by convention in mol/L. The low end stands for a large IC50, the high end for a small IC50.

For `CCOC(=O)C(NC(C)=O)[CH](c1ccccc1)[Sn]([c]1ccccc1)([c]1ccccc1)[c]1ccccc1` (stereo unspecified), the pEC50 was under 4.50 and the pIC50 is 5.15.

Consider `CCOC(=O)C1OC1C1CCCc2ccccc21` (stereo unspecified), for which the pEC50 is under 3.70 and the pIC50 was under 4.00.

With `O=C(Nc1ccc(Cl)cc1Cl)/C(Cl)=C1/Sc2ccccc2NC1=O`, the pEC50 is under 5.17 and the pIC50 is under 5.17.

For the compound `CC1C(=O)N=C2C(=CN(Cc3ccccc3)c3ccccc32)C(=O)N1C` (stereo unspecified), the outcome was inactive. For the compound `CCC(C)[C@H](NC(=O)C1CCCN1C[C@H](O)[C@H](Cc1ccccc1)NC(=O)[C@@H](CC(N)=O)NC(=O)OCc1ccccc1)C(=O)N[C@H](Cc1ccccc1)C(=O)NCCCC[C@@H]1NC(=O)[C@H](CC(C)C)N(C)C(=O)[C@H](C(C)C)NC(=O)[C@H](CC(C)C)N(C)C(=O)[C@@H](CO)N(C)C(=O)[C@H](CC)NC(=O)[C@H]([C@H](O)C(C)C)N(C)C(=O)[C@H](C(C)C)N(C)C(=O)[C@H](CC(C)C)N(C)C(=O)[C@H](CC(C)C)N(C)C(=O)[C@@H](C)NC1=O` (stereo partly specified), the pEC50 is 6.30 and the pIC50 was 4.17.

As to `NC(=O)c1ccc([Se][Se]c2ccc(C(N)=O)cc2)cc1`, the pEC50 is under 4.88 and the pIC50 was 5.16.

For `C1CCC(N=C(NC2CCCCC2)N2CCOCC2)CC1`, the pEC50 is under 3.70 and the pIC50 is 3.87. In the same order, the values of `CSC(=Nc1ccccc1)c1c(C)[nH]n(-c2ccccc2)c1=O` are under 3.70 and 3.90.

Consider `CC(=O)Nc1ccccc1Sc1ccccc1`, for which the pEC50 is under 3.61 and the pIC50 was 4.16. Regarding `COc1cc(NS(=O)(=O)c2ccc(N)cc2)nc(OC)n1`, the pEC50 is under 3.70 and the pIC50 is under 3.70. Take `C/C=C/C=N/N(C(=O)c1cc([N+](=O)[O-])cc([N+](=O)[O-])c1)C1=NC(c2ccccc2)C(c2ccccc2)=NN1` (stereo unspecified): the pEC50 was under 4.44 and the pIC50 is under 4.44. Take `CCCCCCCCCCCCNP(=S)(NCCCCCCCCCCCC)NCCCCCCCCCCCC`: the pEC50 was under 4.00 and the pIC50 was under 4.00.

For `S=C1C=C(c2ccccc2)Sc2ccccc2N1`, the pEC50 is under 3.70 and the pIC50 was 4.22. For `NC(=O)NCNC(N)=O`, in that order: under 3.17 and under 3.17. In the same order, the values of `O=c1c(O)c(-c2cc(O)c(O)cc2O)oc2cc(O)c(C3OC(CO)C(O)C(O)C3O)c(O)c12` (stereo unspecified) are under 3.70 and 3.86. In the same order, the values of `Cc1ccc(OCC2OC(n3cnc4nc(N)nc(Cl)c43)CC2Oc2ccc(C)cc2)cc1` (stereo unspecified) are under 3.70 and under 3.70. Turning to `CC1(C)CC[P+](CC[P+]2(c3ccccc3)CCC(C)(C)c3ccccc32)(c2ccccc2)c2ccccc21` (stereo unspecified), the pEC50 was under 3.39 and the pIC50 was 4.19. In the same order, the values of `c1ccc(CN2CCC(Nc3ccccc3)(c3nnnn3Cc3ccccc3)CC2)cc1` are under 3.70 and 4.48. With `O=c1[nH]c2cccnc2c(=O)n1O`, the pEC50 is under 3.70 and the pIC50 was 4.16. Consider `O=c1c2ccccc2nc(-c2ccccc2Cl)n1NCC1(O)OCC(O)C(O)C1O` (stereo unspecified), for which the outcome was inactive. On the same count and under the same terms, then `COC1(OC)CC2C(=O)N(Cc3ccccc3)C1C(S(=O)(=O)c1ccccc1)C2S(=O)(=O)c1ccccc1` (stereo unspecified), with “inactive”; and `COC(OC)(c1ccccc1)C(I)I`, with “inactive”; and `CN1C2(c3ccccc3)c3c(-c4ccccc4)sc(-c4ccccc4)c3C1(c1ccccc1)C1C(=O)N(c3ccccc3)C(=O)C12` (stereo unspecified), with “inactive”. Still for that read-out and setting: the value for `Nc1c(Cl)ncnc1NCCCNc1ncnc(Cl)c1N` was “inactive”. Regarding `CN1CCN(c2nc3cc(F)ccc3n3cccc23)CC1`, the pEC50 is under 3.70 and the pIC50 is 4.56. In the same order, the values of `CC(C)(C)OC(=O)NCCC(N)=S` are under 3.19 and 3.76.

With `CC(C)(C)C1=CC(=NC(=O)c2cc([N+](=O)[O-])cc([N+](=O)[O-])c2)C=C(C(C)(C)C)C1=O`, the pEC50 is under 5.22 and the pIC50 was under 5.22. Turning to `CN1COc2c(nc(-c3ccccc3)[nH]c2=O)C1`, the pEC50 was under 2.99 and the pIC50 was 4.21. Turning to `Cc1nc2c(=O)n(C)c(=O)nc-2n(-c2ccc(Cl)cc2)c1C`, the outcome was inactive.

For the compound `CN=c1ccc2cc3ccc(NC)cc3oc-2c1`, the pEC50 is under 3.70 and the pIC50 was 4.43. As for `CN(N)P(=O)(c1ccccc1)N(C)N`, the pEC50 is under 2.94 and the pIC50 is 3.30. For `O/N=C(/C(Cl)=C(Cl)Cl)C(Cl)Cl`, in that order: under 3.70 and 4.48. With `O=c1nc(/C=C/c2ccccc2Cl)cc2n1CCN2CCO`, the result was inactive. As for `CC(=O)N=C1N(/C=C2\C(=O)Oc3ccccc3C2=O)C(=O)/C(=C/c2cccc([N+](=O)[O-])c2)N1C`, the pEC50 is under 4.00 and the negative-log IC50 (pIC50) was 4.01.

As to `CC1=C(C(=O)NNC(=O)c2ccccc2)CC(C(=O)NNC(=O)c2ccccc2)=C(C)N1`, the pEC50 is under 3.70 and the pIC50 is under 3.70.

Take `O=c1ccc2ccc(O)cc2o1`: the pEC50 was under 2.81 and the pIC50 was 3.52. For `O=S(c1ccccc1)[C@H]1CC2C3CC4C2C4C31` (stereo partly specified), in that order: under 3.97 and under 3.97. For `Cn1nc(-c2ccccc2)c2c(-c3ccccc3)c3cc(Cl)ccc3nc21`, in that order: under 4.00 and under 4.00. For `Cn1c(-c2ccc(Br)cc2)cc2[nH]c(=S)nc(N)c2c1=O`, in that order: under 4.00 and under 4.00.

As for `CCN(CC)CCN(CC)CC(=O)Nc1ccccc1Cl`, the pEC50 was under 3.70 and the pIC50 was under 3.70. `O=C(CC(C(=O)c1ccsc1)c1ccccc1)c1ccccc1` (stereo unspecified): the pEC50 was under 3.70 and the pIC50 was 3.76. For `CN1C(C)(c2ccccc2)c2ccccc2S1(=O)=O` (stereo unspecified), in that order: 5.41 and 4.07.

Turning to `COC1CC(O)C2OC(c3ccccc3)OCC2O1` (stereo unspecified), the result was inactive. With `O=C1OC(c2cccs2)Sc2ccccc21` (stereo unspecified), the pEC50 was under 3.70 and the pIC50 was 3.71. Turning to `Cc1cccc(C(=O)c2cccc3ccccc23)c1C(=O)O`, the outcome was inactive. `O=C(O)c1nn(-c2ccccc2)nc1-c1nn(-c2ccccc2)nc1C(=O)O`: the pEC50 is under 3.70 and the pIC50 was under 3.70. As to `O=c1oc2c3c4c(cc2c2c1CCC2)CCCN4CCC3`, the pEC50 is under 5.17 and the pIC50 was under 5.17. For the compound `COc1ccc(OC)c(NC2=NCCO2)c1`, the pEC50 was under 3.70 and the pIC50 is 3.97.

With `Clc1ccc(CN2COc3c(ccc4cccnc34)C2)cc1`, the pEC50 was under 3.70 and the pIC50 was 5.74. In the same order, the values of `Cc1ccc(C(=O)N(C2CCCCC2)C2CCCCC2)cc1N=NN(C)C` are under 4.71 and under 4.71. For `CC(C)CCCC(C)[C@H]1CCC(C2C[C@@H](O)[C@@H]3CC(O)[C@@H](O)C[C@]3(CO)C2=O)[C@]1(C)CCO` (stereo partly specified), in that order: under 3.70 and 4.46. Turning to `CC[N+]1(C)CCC(O)(c2ccc(C)cc2)C(C(=O)c2ccc(C)cc2)C1` (stereo unspecified), the pEC50 is under 3.70.

For the compound `N#C/C(=C/NC(N)=S)C(N)=O`, the pEC50 is under 3.70 and the pIC50 is under 3.70. For the compound `COc1ccc2c(c1)OC(c1ccccc1O)CC2=O` (stereo unspecified), the pEC50 was under 3.73 and the pIC50 is 4.52. Take `C=C1C(OC(=O)C(OC(C)=O)C(c2ccccc2)N(C)C)C[C@H](O)[C@]2(C)C1C[C@@H]1CC(OC(C)=O)C(C)=C([C@@H](OC(C)=O)C2O)C1(C)C` (stereo partly specified): the result was inactive. As to `Cc1cccc(N=Nc2c(C)nn(C(=O)CC(=O)Nc3ccc(Cl)cc3)c2C)c1`, the pEC50 is under 3.70 and the pIC50 is 3.91. For `Cc1ccc(S(=O)(=O)NC(=O)NC23CC4CC(CC(F)(C4)C2)C3)cc1`, in that order: under 3.17 and 3.47. For `CCOC(=O)/C(Cl)=C1\SN(C(=O)OCC)N=C1C`, in that order: under 3.99 and 4.97. Turning to `C[N+]12CCCCC1C(CN1C(=O)c3ccccc3C1=O)CCC2` (stereo unspecified), the pEC50 was 4.23 and the pIC50 was under 3.70. Turning to `COCCN1C(=O)C(NC(C)=O)C1COC(C)(C)C` (stereo unspecified), the pEC50 was under 3.04 and the negative-log IC50 (pIC50) is under 3.04. Turning to `COc1ccc(-c2cc(-c3ccco3)c(C#N)c(=O)n2C2OC(COC(C)=O)C(OC(C)=O)C(OC(C)=O)C2OC(C)=O)cc1` (stereo unspecified), the pEC50 is under 4.94 and the pIC50 is under 4.94. For `O=C1C(=O)N(c2ccc(Cl)cc2Cl)C(=O)C(=O)C1c1nc2ccccc2o1`, the pEC50 was under 4.07 and the pIC50 is under 4.07. As to `COc1cc2nncc(SCc3ccccc3Cl)c2cc1OC`, the pEC50 was 5.84 and the pIC50 was 4.29. In the same order, the values of `Oc1ccc(-c2nc(-c3ccccc3)c(-c3ccccc3)[nH]2)cc1` are under 3.70 and 4.57. For `NC(=O)NC1C(C(=O)O)N(Cc2ccccc2)C(=O)N1Cc1ccccc1` (stereo unspecified), in that order: under 3.31 and under 3.31. In the same order, the values of `CN1CCC(O)(OC(=O)C(c2ccccc2)C2(O)CCCC2)CC1` (stereo unspecified) are under 3.70 and under 3.70. As to `[N-]=[N+]=NCC(CO)OCn1cc(Cc2ccccc2)c(=O)[nH]c1=O` (stereo unspecified), the outcome was inactive. For the compound `CC(=O)O[C@H]1CN(S(=O)(=O)c2ccc(C)cc2)C[C@@H]1C1CCCCC1`, the pEC50 is under 3.70 and the pIC50 was 4.54. With `CC(C)(C)CNC(=O)NCn1cc(-c2ccccc2)nn1`, the pEC50 is under 3.70 and the pIC50 was under 3.70. For the compound `CNC(=O)O/N=C/c1cccc(/C=N/OC(=O)NC)c1`, the pEC50 is under 3.70 and the pIC50 is under 3.70. Regarding `CC1(C)CC(=O)C2=C(C1)Nc1ccc(Cl)cc1NC2c1ccccc1` (stereo unspecified), the pEC50 is under 3.70 and the pIC50 was 4.12. For `COC(=O)C1=C(C)NC2=C(C(=O)c3ccccc32)C1c1cn[nH]c1-c1ccccc1` (stereo unspecified), in that order: under 4.70 and under 4.70.
